Assay results from article PMC7316778 (Nature Communications, 2020).
“And” between values parts separate entries of the source, which are not always exact repeats. Equal values may be shown once. Read-outs that look alike come from different tables or passages of the source.

Key:
[1] = target: LTK (TYK1) (Homo sapiens, UniProt P29376); assay: SelectScreen kinase assay
Experimental: (§1) Selectivity profiling assays were performed by the Invitrogen SelectScreen™ Services. […] The concentration of ATP was selected to be equal to the KM, unless indicated otherwise.

[2] = target: ACVR1 (ALK2) (Homo sapiens, UniProt Q04771); assay: SelectScreen kinase assay
Experimental: as §1

[3] = target: TEK (Tie2) (Homo sapiens, UniProt Q02763); assay: SelectScreen kinase assay
Experimental: as §1

[4] = target: PAK3 (Homo sapiens, UniProt O75914); assay: SelectScreen kinase assay
Experimental: as §1

[5] = target: TLK2 (Homo sapiens, UniProt Q86UE8); assay: SelectScreen kinase assay
Experimental: as §1

[6] = target: FLT1 (VEGFR1) (Homo sapiens, UniProt P17948); assay: SelectScreen kinase assay
Experimental: as §1

[7] = target: CAMK2B (CaMKII beta) (Homo sapiens, UniProt Q13554); assay: SelectScreen kinase assay
Experimental: as §1

[8] = target: PAK1 (Homo sapiens, UniProt Q13153); assay: SelectScreen kinase assay
Experimental: as §1

[9] = target: T1, FES^WT (Homo sapiens, UniProt P07332); assay: PamChip microarray peptide phosphorylation; format: biochemical; conditions: Figure 7f, WT + WEL028, n 3
T1 construct: human FES cDNA encoding residues 448–822 or human FER cDNA encoding residues 448–820 was amplified by PCR; made in house; host or cells: E. coli BL21(DE3), co-expressing YopH phosphatase

[10] = target: T2, ULK2 (Homo sapiens, UniProt Q8IYT8); assay: SelectScreen kinase assay
T2 sequence (Q8IYT8 1-1036): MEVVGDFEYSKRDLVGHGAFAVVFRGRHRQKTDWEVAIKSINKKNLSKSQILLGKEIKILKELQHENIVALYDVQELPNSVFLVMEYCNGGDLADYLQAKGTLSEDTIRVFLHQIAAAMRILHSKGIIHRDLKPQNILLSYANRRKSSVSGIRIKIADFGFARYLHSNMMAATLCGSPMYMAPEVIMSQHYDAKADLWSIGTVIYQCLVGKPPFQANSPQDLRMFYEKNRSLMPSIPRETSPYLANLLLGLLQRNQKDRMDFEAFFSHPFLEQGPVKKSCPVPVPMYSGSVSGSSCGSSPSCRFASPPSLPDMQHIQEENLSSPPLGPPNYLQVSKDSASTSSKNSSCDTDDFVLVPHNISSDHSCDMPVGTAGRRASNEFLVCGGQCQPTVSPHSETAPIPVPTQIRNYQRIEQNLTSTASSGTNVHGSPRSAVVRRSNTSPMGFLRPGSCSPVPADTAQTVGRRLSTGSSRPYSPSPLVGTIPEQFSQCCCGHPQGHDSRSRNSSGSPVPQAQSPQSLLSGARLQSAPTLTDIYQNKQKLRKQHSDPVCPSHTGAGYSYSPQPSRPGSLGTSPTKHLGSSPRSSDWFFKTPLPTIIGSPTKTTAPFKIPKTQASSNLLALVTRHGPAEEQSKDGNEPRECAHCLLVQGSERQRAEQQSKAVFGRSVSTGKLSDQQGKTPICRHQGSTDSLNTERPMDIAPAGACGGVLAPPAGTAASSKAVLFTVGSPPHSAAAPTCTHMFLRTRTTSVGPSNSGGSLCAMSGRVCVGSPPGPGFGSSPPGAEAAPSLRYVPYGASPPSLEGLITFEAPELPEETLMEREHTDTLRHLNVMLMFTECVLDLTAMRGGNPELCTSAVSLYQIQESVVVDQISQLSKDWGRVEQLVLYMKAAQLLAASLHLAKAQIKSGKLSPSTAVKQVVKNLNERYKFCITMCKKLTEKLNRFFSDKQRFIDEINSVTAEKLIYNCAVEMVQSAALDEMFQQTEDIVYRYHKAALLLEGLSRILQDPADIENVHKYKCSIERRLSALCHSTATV
Experimental: as §1

[11] = target: MAP3K9 (MLK1) (Homo sapiens, UniProt P80192); assay: SelectScreen kinase assay
Experimental: as §1

[12] = target: RPS6KA3 (RSK2) (Homo sapiens, UniProt P51812); assay: SelectScreen kinase assay
Experimental: as §1

[13] = target: PIK3CD/PIK3R1 (p110d/p85a) (Homo sapiens, UniProt O00329); assay: SelectScreen kinase assay; conditions: 1 h, 1 μM WEL028, 1 h preincubation
Experimental: as §1

[14] = 1 h, 1 μM WEL028, 1 h preincubation
[15] = 1 µM, ZLYTE, ATP Km app, listed as WEL028, 1 µM
[16] = 1 µM, LanthaScreen Binding, listed as WEL028, 1 µM

Chain of LTK (TYK1) (P29376 17-864): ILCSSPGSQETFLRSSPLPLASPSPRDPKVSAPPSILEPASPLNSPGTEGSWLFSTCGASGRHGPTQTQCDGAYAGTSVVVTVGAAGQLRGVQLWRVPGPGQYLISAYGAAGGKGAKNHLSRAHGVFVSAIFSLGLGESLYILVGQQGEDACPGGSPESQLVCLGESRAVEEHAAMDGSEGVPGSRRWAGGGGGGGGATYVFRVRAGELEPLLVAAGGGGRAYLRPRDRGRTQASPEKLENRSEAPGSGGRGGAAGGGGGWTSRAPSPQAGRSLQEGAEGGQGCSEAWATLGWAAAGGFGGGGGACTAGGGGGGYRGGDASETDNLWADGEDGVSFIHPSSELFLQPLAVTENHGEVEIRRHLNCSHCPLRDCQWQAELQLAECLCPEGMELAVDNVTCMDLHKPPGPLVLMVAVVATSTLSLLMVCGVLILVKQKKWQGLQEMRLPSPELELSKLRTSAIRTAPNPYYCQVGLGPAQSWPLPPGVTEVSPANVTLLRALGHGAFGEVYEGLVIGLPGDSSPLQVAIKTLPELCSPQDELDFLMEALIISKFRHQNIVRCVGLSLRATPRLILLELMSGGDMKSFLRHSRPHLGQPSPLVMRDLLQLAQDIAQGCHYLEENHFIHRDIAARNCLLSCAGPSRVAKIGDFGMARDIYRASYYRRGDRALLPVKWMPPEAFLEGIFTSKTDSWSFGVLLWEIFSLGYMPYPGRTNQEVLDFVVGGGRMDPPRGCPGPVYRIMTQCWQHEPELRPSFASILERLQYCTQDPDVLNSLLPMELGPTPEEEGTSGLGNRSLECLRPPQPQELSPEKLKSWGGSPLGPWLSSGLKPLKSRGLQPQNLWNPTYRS
Chain of CAMK2B (CaMKII beta) (Q13554 whole entry): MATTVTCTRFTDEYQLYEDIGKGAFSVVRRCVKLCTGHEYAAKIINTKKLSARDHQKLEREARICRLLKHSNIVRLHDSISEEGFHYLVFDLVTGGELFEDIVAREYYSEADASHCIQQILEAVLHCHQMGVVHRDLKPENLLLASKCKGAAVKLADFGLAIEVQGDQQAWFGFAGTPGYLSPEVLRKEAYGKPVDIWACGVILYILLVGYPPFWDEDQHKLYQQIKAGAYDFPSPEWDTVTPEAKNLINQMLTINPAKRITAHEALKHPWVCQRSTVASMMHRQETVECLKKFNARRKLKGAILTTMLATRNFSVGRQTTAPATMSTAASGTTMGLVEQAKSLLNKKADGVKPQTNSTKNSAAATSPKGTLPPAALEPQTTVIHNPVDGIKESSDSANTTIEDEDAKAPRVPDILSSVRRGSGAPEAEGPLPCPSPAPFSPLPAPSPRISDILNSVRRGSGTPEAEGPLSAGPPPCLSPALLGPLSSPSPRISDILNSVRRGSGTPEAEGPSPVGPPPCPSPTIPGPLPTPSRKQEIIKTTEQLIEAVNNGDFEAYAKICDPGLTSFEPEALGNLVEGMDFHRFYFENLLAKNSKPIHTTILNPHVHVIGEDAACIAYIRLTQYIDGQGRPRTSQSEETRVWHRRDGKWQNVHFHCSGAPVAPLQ
Chain of RPS6KA3 (RSK2) (P51812 whole entry): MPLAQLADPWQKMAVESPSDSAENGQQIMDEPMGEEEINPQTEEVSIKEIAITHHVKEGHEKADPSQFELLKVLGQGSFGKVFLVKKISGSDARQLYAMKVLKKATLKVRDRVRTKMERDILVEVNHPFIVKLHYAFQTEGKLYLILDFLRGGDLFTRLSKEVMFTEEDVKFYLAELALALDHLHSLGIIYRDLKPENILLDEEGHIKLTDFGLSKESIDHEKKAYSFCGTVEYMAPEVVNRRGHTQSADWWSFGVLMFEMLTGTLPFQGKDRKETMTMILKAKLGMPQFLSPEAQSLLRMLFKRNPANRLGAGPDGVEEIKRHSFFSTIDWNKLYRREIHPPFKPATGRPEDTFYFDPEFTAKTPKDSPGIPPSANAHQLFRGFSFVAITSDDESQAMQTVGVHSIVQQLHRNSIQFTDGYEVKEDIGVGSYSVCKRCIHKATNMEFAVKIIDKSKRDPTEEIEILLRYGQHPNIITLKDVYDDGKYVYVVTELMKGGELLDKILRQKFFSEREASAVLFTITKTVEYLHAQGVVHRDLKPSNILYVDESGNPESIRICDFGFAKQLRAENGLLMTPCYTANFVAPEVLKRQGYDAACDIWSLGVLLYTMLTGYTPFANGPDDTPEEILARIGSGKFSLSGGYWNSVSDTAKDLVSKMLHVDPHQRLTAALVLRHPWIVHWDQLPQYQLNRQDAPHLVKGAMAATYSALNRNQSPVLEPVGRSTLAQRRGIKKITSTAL
T1 sequence (P07332 448-822): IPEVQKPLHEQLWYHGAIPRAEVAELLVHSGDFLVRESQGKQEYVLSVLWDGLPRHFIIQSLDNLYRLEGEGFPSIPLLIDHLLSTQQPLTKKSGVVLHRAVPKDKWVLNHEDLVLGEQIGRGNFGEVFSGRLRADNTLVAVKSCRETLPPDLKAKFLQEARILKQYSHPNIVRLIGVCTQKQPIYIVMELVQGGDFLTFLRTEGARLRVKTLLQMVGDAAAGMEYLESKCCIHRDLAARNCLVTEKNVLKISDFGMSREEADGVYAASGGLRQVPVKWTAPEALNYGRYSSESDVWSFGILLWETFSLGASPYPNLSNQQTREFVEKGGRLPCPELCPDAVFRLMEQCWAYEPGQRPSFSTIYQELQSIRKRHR
Chain of FLT1 (VEGFR1) (P17948 27-1338): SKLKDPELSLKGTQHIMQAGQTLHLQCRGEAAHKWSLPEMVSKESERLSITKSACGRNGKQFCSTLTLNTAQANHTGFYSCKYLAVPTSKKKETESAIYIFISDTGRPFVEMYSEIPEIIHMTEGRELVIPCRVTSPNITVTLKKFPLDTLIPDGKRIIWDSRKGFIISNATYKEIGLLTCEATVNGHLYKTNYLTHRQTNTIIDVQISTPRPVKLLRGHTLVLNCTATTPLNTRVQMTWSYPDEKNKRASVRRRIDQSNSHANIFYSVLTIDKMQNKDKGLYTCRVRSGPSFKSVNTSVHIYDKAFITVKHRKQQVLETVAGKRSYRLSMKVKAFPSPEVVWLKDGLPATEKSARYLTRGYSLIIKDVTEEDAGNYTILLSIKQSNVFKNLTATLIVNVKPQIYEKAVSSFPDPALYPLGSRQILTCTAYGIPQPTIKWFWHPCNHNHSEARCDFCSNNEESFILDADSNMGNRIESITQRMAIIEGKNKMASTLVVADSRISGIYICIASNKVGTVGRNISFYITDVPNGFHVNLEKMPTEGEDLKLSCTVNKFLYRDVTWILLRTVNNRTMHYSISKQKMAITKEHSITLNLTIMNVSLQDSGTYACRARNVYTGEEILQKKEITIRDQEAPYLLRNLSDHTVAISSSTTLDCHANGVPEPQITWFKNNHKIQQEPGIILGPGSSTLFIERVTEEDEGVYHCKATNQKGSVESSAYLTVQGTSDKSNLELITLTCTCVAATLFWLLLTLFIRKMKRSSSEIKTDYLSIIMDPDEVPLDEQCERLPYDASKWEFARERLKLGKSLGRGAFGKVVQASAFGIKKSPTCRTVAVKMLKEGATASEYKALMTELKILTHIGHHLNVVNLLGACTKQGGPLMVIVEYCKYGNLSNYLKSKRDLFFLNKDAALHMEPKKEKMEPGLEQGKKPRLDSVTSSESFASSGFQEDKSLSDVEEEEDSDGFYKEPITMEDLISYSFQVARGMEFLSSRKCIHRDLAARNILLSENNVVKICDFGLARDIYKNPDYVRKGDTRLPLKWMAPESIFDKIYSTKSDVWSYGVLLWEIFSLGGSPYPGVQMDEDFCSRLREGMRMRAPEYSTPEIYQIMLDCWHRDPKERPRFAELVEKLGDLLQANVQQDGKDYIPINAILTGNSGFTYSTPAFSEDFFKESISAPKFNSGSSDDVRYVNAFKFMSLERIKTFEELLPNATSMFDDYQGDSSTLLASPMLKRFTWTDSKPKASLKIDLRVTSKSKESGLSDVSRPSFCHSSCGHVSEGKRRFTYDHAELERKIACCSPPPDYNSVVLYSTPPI
Chain of TEK (Tie2) (Q02763 23-1124): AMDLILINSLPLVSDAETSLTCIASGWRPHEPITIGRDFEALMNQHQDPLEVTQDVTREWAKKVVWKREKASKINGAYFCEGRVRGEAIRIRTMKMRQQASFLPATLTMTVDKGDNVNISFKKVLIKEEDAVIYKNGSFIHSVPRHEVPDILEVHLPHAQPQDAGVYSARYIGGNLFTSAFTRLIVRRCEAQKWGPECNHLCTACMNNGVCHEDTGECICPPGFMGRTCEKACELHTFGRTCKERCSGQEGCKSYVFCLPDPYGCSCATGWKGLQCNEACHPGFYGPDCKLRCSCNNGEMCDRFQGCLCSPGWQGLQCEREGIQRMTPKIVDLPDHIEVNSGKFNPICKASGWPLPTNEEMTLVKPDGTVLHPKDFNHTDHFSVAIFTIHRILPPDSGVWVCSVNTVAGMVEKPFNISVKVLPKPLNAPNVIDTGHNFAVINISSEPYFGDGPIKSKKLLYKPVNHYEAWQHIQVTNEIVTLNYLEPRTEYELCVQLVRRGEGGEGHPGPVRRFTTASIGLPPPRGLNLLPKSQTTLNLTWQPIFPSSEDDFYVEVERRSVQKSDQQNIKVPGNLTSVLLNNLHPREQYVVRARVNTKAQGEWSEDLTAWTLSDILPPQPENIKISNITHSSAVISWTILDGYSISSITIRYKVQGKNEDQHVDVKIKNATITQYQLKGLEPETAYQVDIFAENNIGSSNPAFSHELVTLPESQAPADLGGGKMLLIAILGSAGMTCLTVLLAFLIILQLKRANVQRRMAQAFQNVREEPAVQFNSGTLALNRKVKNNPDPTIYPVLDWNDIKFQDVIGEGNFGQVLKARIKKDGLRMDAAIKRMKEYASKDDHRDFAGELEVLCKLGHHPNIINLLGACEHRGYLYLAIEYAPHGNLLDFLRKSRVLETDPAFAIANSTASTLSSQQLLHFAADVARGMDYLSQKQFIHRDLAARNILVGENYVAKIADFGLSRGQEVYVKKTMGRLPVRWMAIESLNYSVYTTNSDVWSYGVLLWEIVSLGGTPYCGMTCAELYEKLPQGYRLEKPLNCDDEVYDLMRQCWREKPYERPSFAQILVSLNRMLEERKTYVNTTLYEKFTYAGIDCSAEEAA

`C#CCOc1ccc(Nc2ncc(Cl)c(Nc3ccccc3NC(=O)C=C)n2)c(OC)c1` [Compound 6] was tested, and the inhibition at 1 µM [1, 14] was 43%, the “Inhibition at 1 µM (%)” value ([1]; LTK (TYK1), 1 µM, ZLYTE, ATP Km app, listed as WEL028, 1 µM) was 37% and the inhibition at 1 µM ([1]; read-out: Inhibition at 1 µM (%), LTK (TYK1), 1 µM, ZLYTE, ATP Km app) was 48%. The inhibition at 1 µM [2, 14] was 2%, the inhibition at 1 µM ([2]; read-out: Inhibition at 1 µM (%), ACVR1 (ALK2), 1 µM, LanthaScreen Binding) was 3% and the “Inhibition at 1 µM (%)” value [3, 15] was 4% and 10%. The inhibition at 1 µM [3, 14] was 7%, the inhibition at 1 µM [4, 14] was 7% and the “Inhibition at 1 µM (%)” value ([4]; PAK3, 1 µM, ZLYTE, ATP Km app, listed as WEL028, 1 µM) was 6%. The inhibition at 1 µM ([4]; read-out: Inhibition at 1 µM (%), PAK3, 1 µM, ZLYTE, ATP Km app) was 7%, the “Inhibition at 1 µM (%)” value [5, 16] was 1% and the inhibition at 1 µM [5, 14] was 0%. The inhibition at 1 µM [6, 14] was 36%, the “Inhibition at 1 µM (%)” value ([6]; FLT1 (VEGFR1), 1 µM, ZLYTE, ATP Km app, listed as WEL028, 1 µM) was 31% and the inhibition at 1 µM ([6]; read-out: Inhibition at 1 µM (%), FLT1 (VEGFR1), 1 µM, ZLYTE, ATP Km app) was 42%. For the same compound, the inhibition at 1 µM [7, 14] was 0%, the “Inhibition at 1 µM (%)” value ([7]; CAMK2B (CaMKII beta), 1 µM, ZLYTE, ATP Km app, listed as WEL028, 1 µM) was -1% and 1% and the inhibition at 1 µM ([8]; 1 h) was 8%. The inhibition at 1 µM ([8]; read-out: Inhibition at 1 µM (%)) was 8%, the “Mean signal, time course” value ([9]; time 0 min) was -37.0 and the “Mean signal, time course” value ([9]; time 5 min) was 24.0. For the same compound, the “Mean signal, time course” value ([9]; time 10 min) was 80.0, the “Mean signal, time course” value ([9]; time 15 min) was 138.0 and the “Mean signal, time course” value ([9]; time 20 min) was 193.0. The “Mean signal, time course” value ([9]; time 25 min) was 246.0, the “Mean signal, time course” value ([9]; time 30 min) was 301.0 and the “Mean signal, time course” value ([9]; time 35 min) was 361.0. The “Mean signal, time course” value ([9]; time 40 min) was 414.0, the “Mean signal, time course” value ([9]; time 45 min) was 472.0 and the “Mean signal, time course” value ([9]; time 50 min) was 524.0. For the same compound, the “Mean signal, time course” value ([9]; time 55 min) was 585.0, the “Mean signal, time course” value ([9]; time 60 min) was 641.0 and the “Inhibition at 1 µM (%)” value [10, 16] was 4%. For the same compound, the inhibition at 1 µM [10, 14] was 3%, the inhibition at 1 µM ([10]; read-out: Inhibition at 1 µM (%), 1 µM, LanthaScreen Binding) was 2% and the inhibition at 1 µM [11, 14] was -11%. The “Inhibition at 1 µM (%)” value ([11]; MAP3K9 (MLK1), 1 µM, ZLYTE, ATP Km app) was -21%, the “Inhibition at 1 µM (%)” value [12, 15] was 12% and the inhibition at 1 µM [12, 14] was 13%. It also gave an inhibition at 1 µM ([12]; read-out: Inhibition at 1 µM (%), 1 µM, ZLYTE, ATP Km app) of 13% and an inhibition at 1 µM [13] of 8%.
